From patent publication US9795687B2, “Modularly assembled small molecules for the treatment of myotonic dystrophy type 1” (The Scripps Research Institute, priority 2013, dated 2017)

What was measured:
[1] = system: r(CAG)12; assay: SPR binding kinetics to r(CAG)12
Protocol: (§1) The binding of 2H-K4NMe to various RNAs including r(CUG)12, r(CAG)12, r(AU)12 and r(GC)δ was studied by surface plasmon resonance (SPR) spectrometry. […] In summary, 2H-K4NMe is selective for r(CUG)12 by ˜30-100-fold over the other RNAs studied (Table 2). In general, it has a faster association rate (kon) and a slower dissociation rate (koff) when binding to r(CUG)12 compared to the other RNAs.
(§2) On rates, off rates and Kobs values were measured using a ForteBio OctetRed spectrophotometer and Streptavidin SA dip-and-read biosensors (ForteBio). Sensors were pre-equilibrated in 1X Kinetics Buffer (ForteBio) prior to beginning measurements. 5′-Biotinylated r(CUG)12 was folded by heating in 1X Kinetics Buffer at 60° C. for 5 min followed by slow cooling to room temperature on the bench top. Measurements were completed by incubating sensors sequentially in 200 μL of: 1X Kinetics Buffer, 540 nM 5′-biotinylated RNA, 1X Kinetics Buffer, compound of interest or MBNL1 (varying concentrations; seven 1:2 dilutions in 1X Kinetics Buffer), and finally 1X Kinetics Buffer. Data were fit using ForteBio's Data Analysis 7.0 software. MBNL1 and II (monomer) data were fit using a 1:1 model. This model fits one analyte in solution binding to one binding site on the surface. 2H-K4NMe and 2H-4 data were fit using a 2:1 heterogeneous ligand model. This model fits the binding of one analyte in solution to two different binding sites on the surface. Kinetic parameters are calculated for both interactions.

[2] = system: Clcn1 and Serca1 (Atp2a1) alternative splicing in HSA^LR mice; assay: Alternative pre-mRNA splicing in DM1 mouse model (HSA^LR), RT-PCR of vastus muscle; format: in vivo
Source text: 2H-K4NMe was selected for animal studies based on overall performance in cell-based assays, increased proteolytic stability as compared to 2H-KNH and decreased structural complexity compared to 2H-K4NPr. A mouse model of DM1 has been reported in which 250 rCUG repeats are expressed using an actin promoter (human skeletal actin long repeat, HSA^LR).^24 The presence of these repeats results in dysregulation of alternative splicing in the muscle-specific chloride ion channel (Clcn1) and the sarcoplasmic/endoplasmic reticulum calcium ATPase 1 (Serca1/Atp2a1) pre-mRNAs. Clcn1 exon 7a is excluded ˜100% in mRNA from normal adult mice; DM1 mice have an exclusion rate of ˜50%. After DM1 mice were treated for 7 days with 100 mg/kg/d of 2H-K4NMe, the exclusion rate of exon 7A was restored to 71% (p-value=0.007) (FIGS. 7 and 11). Mis-splicing of Serca1 exon 21 was also partially rescued. The exon 22 inclusion rate is ˜100% in normal adult mice and ˜11.8% in DM1 mice.
All experimental procedures, mouse handling, and husbandry were completed in accordance with the Association for Assessment and Accreditation of Laboratory Animal Care. A mouse model for DM1, HSA^LR in line 20b, was used.^24 HSA^LR mice express human skeletal actin RNA with 250 CUG repeats in the 3′ UTR. Age- and gender-matched HSA^LR mice were injected intraperitoncally with 100 mg/kg 2H-K4NMe in water for treatment or 0.9% NaCl for control once per day for 7 days. Mice were sacrificed one day after the last injection, and the vastus muscle was obtained. RNA was extracted from the vastus tissue, and cDNA was synthesized as previously described.^65
PCR amplification was carried out for 26-30 cycles with the following primer pairs: Clcn1 forward 5′-[…] (SEQ ID NO:5) and reverse 5′-(6FAM)[…] (SEQ ID NO:6); Secral forward 5′-(6FAM)[…] (SEQ ID NO:7) and reverse 5′- […] (SEQ ID NO:8). The PCR products were separated by agarose gel electrophoresis. The gel was scanned with a laser fluorimager (Typhoon, GE Healthcare), and the products were quantified using ImageQuant.

[3] = system: pronase; assay: Proteolytic stability against pronase digestion (HPLC); format: in vitro ADME, Streptomyces griseus K-1; parameters: key to Pronase Degradation (pH 7.8) / Pronase Degradation (pH 9): +: Pronase stable; ++: Intermediate Pronase stability; +++: Pronase unstable; details: 18 h, 400 μM compound
Protocol: Proteolytic stability of second and third generation compounds was assessed using pronase as previously described.^3 Pronase is a group of≧10 proteases isolated from Streptomyces griseus K-1. As such, proteolytic degradation was measured at two pH's, 7.8 and 9.0. Briefly, promise (1 unit) was added to the compound of interest (400 μM in 40 μL) in 1X Digestion Buffer (50 mM Tris-HCl, pH 7.8 or 9.0, and 10 mM CaCl2), and the reaction was incubated at 37° C. for 18 h. Reactions were quenched by addition of 4 μL of 25% acetic acid, and the products of the pronase digestion were analyzed by HPLC. A linear gradient of 0-100% methanol in H2O with 0.1% (v/v) TFA and a flow rate of 1 mL/min were employed.

[4] = system: r(AU)12; assay: SPR binding kinetics to r(AU)12
Protocol: as §1, §2

[5] = system: C2C12 cell line expressing firefly luciferase mRNA with r(CUG)800 in the 3′ UTR; assay: DM1 translational defect, luciferase model system; format: cell-based; details: as little as 1 μM compound
Source text: Next, compounds were studied for improving translational defects associated with DM1 (due to poor nucleocytoplasmic transport of r(CUG)^exp-containing transcripts).^33-40 In particular, a cellular model system was employed in which the C2C12 cell line stably expresses r(CUG)800 embedded in the 3′ UTR of firefly luciferase.^18 Akin to DMPK mRNA in DM1-affected cells, the expanded repeat impairs nucleocytoplasmic transport of luciferase mRNA and thus decreases luciferase expression. Compounds that bind r(CUG)^exp and disrupt the r(CUG)^exp-MBNL1 complex may stimulate cytoplasmic transport of the luciferase mRNA and thus translation of luciferase (FIG. 4C).
C2C12 cell lines expressing 800 or 0 CTG repeats in the 3′ UTR of luciferase were grown as monolayers in 96-well plates in growth medium (1X DMEM, 10% FBS, 1X Glutamax, (Invitrogen) and 1X penicillin/streptomycin (MP Biomedicals LLC)). After 24 h, the compound of interest was added in 50 μL of growth medium. Cells were treated with compound for 24 h. Luciferase activity was determined as previously described.^18

[6] = r(CAG)12, two component binding isotherm
[7] = r(AU)12, two component binding isotherm

C[C@@H](C(=O)N(C)[C@@H](C)C(=O)N(C)[C@@H](C)C(=O)N(C)[C@@H](C)C(=O)N[C@@H](CCCCNC(=O)CCCOc1cccc(-c2nc3cc(-c4nc5cc(N6CCN(C)CC6)ccc5[nH]4)ccc3[nH]2)c1)C(N)=O)N(C)C(=O)CCCOc1cccc(-c2nc3ccc(-c4nc5cc(N6CCN(C)CC6)ccc5[nH]4)cc3[nH]2)c1 [Compound 2H-K4NMe]
Selectivity for r(CUG)12 ([1]; over r(CAG)12): 63
kon (1) ([1]; r(CAG)12): 83800 M⁻¹ s⁻¹
kon (2) ([1]; r(CAG)12): 1630 M⁻¹ s⁻¹
Kd ([1]; r(CAG)12, read-out: Kobs (1)): 829 nM
koff (1) [1, 6]: 0.0695 s⁻¹
koff (2) [1, 6]: 0.0847 s⁻¹
effect on alternative splicing of Itgb1 and CapZB mRNAs (not regulated by MBNL1) ([2]; 100 mg/kg/d for 7 days): did not affect
Serca1 exon 22 inclusion rate ([2]; 100 mg/kg/d for 7 days, DM1 mice ˜11.8%, normal ˜100%): 21.5%
Clcn1 exon 7a exclusion rate ([2]; 100 mg/kg/d intraperitoneally for 7 days, DM1 mice ˜50%, normal ˜100%): 71%
Pronase Degradation (pH 7.8) ([3]; pH 7.8, 37° C.): ++
Pronase Degradation (pH 9) ([3]; pH 9.0, 37° C.): ++
Selectivity for r(CUG)12 ([4]; over r(AU)12): 30
kon (1) ([4]; r(AU)12): 41300 M⁻¹ s⁻¹
kon (2) ([4]; r(AU)12): 19800 M⁻¹ s⁻¹
Kd ([4]; r(AU)12, read-out: Kobs (1)): 400 nM
koff (1) [4, 7]: 0.0165 s⁻¹
koff (2) [4, 7]: 0.359 s⁻¹
improvement of DM1 translational defect (luciferase activity), dose response [5]: Significant activity
